Test results taken from patent US12384801B2, “Benzothiophene, thienopyridine and thienopyrimidine derivatives for the modulation of sting” (CTXT PTY LTD, priority 2019, dated 2025).

What was measured:
WT human STING isoform = WT human STING isoform (Homo sapiens (Human), UniProt Q86WV6, H232R); test: THP-1-Dual KI-hSTING-R232 reporter cell line assay; format: cell-based; conditions: 24 h incubation, luminescence, normalized to ML RR-S2 CDA 40 μM; read-out: EC50 THP-1 Dual KI-hSTING-R232 cells
Method: (§1) THP-1 STING Lucia ISG cells (InvivoGen #thpl-isg) were cultured in RPMI-1640 containing 2 mM L-glutamine, 25 mM HEPES, 100 μg/mL Normocin (InvivoGen) and 10% heat-inactivated FBS. Cells were seeded at a density of 7×10^5 cells/mL, maintained at 37° C./5% CO2, and passaged every 3-4 days. Selection pressure was maintained by the addition of 100 μg/mL Zeocin every second passage.
(§2) Assay conditions: cells were harvested and resuspended at a concentration of 5×10^5 cells/mL in fresh growth media. Of this cell preparation 20 μL per well was dispensed into 384 well cell culture plates (Greiner, #781098X) and incubated at 37° C./5% CO2 for 2 hours.
(§3) Concentration Response Curves (commonly 11 doses) were prepared by 2.5 fold serial dilution starting from 10 mM compound stock solution in DMSO. Compound dilutions were transferred into the cell culture plates using a pintool (0.1 μL transfer), control wells were matched for DMSO. Positive control wells received ML RR-S2 CDA (Med Chem Express HY12885B) in 5 μL of media to a final concentration of 40 μM. All other wells received additional 5 μL of media only to equalize volume. The plates were incubated for 24 h at 37° C./5% CO2.
(§4) For the detection step, QUANTI-Luc (InvivoGen #rep-qlc1) was prepared according to manufacturer's instruction and 10 μL were added per well to the culture plates. Plates were shaken for ten seconds on an orbital shaker and left in the dark at room temperature for two minutes, before luminescence was read on a Perkin Elmer Envision plate reader.
(§5) Data analysis: Luminescence raw data was normalized % activity relative to the signal of the positive control wells and negative control wells which were not treated with compound. The following formula was used to calculate normalized % activity from raw signals: % activity=(sample−negative)/(positive−negative)
(§6) The THP-1 STING Lucia ISG cell EC50 provides an assessment of activity at the human HAQ isoform of STING. For assessing compound activity against the WT human STING isoform, an equivalent method was conducted where the cells used were THP-1-Dual KI-hSTING-R232 (InvivoGen #thpd-r232).

human STING (HAQ) [1] = molecular target: T1, human STING (HAQ) (Homo sapiens (Human), UniProt Q86WV6, G230A/H232R/R293Q); test: Surface Plasmon Resonance (SPR), STING (HAQ); conditions: read-out: SPR (HAQ) KD; biotinylated STING on streptavidin chip, 8° C.
human STING (WT) = human STING (WT) (Homo sapiens (Human), UniProt Q86WV6, H232R); test: Differential scanning fluorimetry (DSF), huSTING (WT); format: binding; conditions: compound 100 μM, 2 μM protein, Tm with ligand minus Tm of protein alone (1% DMSO)
Method: (§7) Data were analyzed using “Meltdown analysis” protocol described by Rosa (2015).

human STING (HAQ) [2] = molecular target: T1, human STING (HAQ); test: Differential scanning fluorimetry (DSF), huSTING (HAQ); format: binding; conditions: compound 100 μM, 2 μM protein, Tm with ligand minus Tm of protein alone (1% DMSO)
Method: as §7

[3] = molecular target: human HAQ isoform of STING (Homo sapiens (Human), UniProt Q86WV6, G230A/H232R/R293Q/R71H); test: THP-1 STING Lucia ISG reporter cell line assay; format: cell-based; conditions: 24 h incubation, luminescence, normalized to ML RR-S2 CDA 40 μM; read-out: EC50 THP-I STING Lucia ISG cells
Method: as §1, §2, §3, §4, §5, §6

T1 sequence (Q86WV6 149-345 G230A/H232R/R293Q): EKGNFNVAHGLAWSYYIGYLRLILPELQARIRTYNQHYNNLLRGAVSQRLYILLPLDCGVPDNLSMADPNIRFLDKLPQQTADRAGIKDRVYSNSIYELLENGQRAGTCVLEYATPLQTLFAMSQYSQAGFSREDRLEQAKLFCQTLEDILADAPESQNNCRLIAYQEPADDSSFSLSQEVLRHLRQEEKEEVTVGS
Sequence of human HAQ isoform of STING (Q86WV6 whole entry R71H/G230A/H232R/R293Q, canonical isoform): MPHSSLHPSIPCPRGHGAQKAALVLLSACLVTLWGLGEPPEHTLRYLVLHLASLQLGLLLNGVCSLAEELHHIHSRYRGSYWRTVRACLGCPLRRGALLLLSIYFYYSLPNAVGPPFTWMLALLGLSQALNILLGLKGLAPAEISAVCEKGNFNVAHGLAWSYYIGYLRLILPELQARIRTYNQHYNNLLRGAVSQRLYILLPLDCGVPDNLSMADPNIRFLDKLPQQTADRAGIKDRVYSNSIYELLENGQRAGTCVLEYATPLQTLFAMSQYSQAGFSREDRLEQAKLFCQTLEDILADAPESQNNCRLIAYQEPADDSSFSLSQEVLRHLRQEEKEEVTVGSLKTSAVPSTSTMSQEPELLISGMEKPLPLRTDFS
Sequence of human STING (WT) (Q86WV6 149-345 H232R): as the sequence (Q86WV6 149-345 G230A/H232R/R293Q) above, with A82G, Q145R counted along it
Sequence of WT human STING isoform (Q86WV6 whole entry H232R, canonical isoform): as the sequence (Q86WV6 whole entry R71H/G230A/H232R/R293Q, canonical isoform) above, with H71R, A230G, Q293R counted along it

EC50 (WT human STING isoform)	ΔTm at 100 µM (human STING (WT))	ΔTm at 100 µM (human STING (HAQ) [2])	EC50 [3]	DSF huSTING (WT) ΔTm (human STING (WT))	Compound	Kd (human STING (HAQ) [1])	DSF huSTING (HAQ) ΔTm (human STING (HAQ) [2])
> 40 µM	–	–	> 40 µM	–	CCOC(=O)c1sc2ccnc(OC)c2c1-c1nc2cc(C(N)=O)ccc2n1CCn1c(-c2c(C(=O)OCC)sc3ccnc(OC)c23)nc2cc(C(N)=O)ccc21 [Example 6, Diethyl 3,3′-(ethane-1,2-diylbis(5-carbamoyl-1H-benzo[d]imidazole-1,2-diyl))bis(4-methoxythieno[3,2-c]pyridine-2-carboxylate)]	–	–
3.66 µM	–	–	2.6 µM	2.74 °C	NC(=O)c1ccc2c(c1)nc(-c1c(C(=O)O)sc3cccc(C(F)(F)F)c13)n2CCn1c(-c2c(C(=O)O)sc3cccc(C(F)(F)F)c23)nc2cc(C(N)=O)ccc21 (single isomer, unassigned) [Example 19.2, 3,3′-(Ethane-1,2-diylbis(5-carbamoyl-1H-benzo[d]imidazole-1,2-diyl))bis(4-(trifluoromethyl)benzo[b]thiophene-2-carboxylic acid)]	–	12.26 °C
9.18 µM	–	–	5.08 µM	–	CCOC(=O)c1sc2c(F)ccc(OC)c2c1-c1nc2cc(C(N)=O)ccc2n1CCn1c(-c2c(C(=O)OCC)sc3c(F)ccc(OC)c23)nc2cc(C(N)=O)ccc21 [Example 12, Diethyl 3,3′-(ethane-1,2-diylbis(5-carbamoyl-1H-benzo[d]imidazole-1,2-diyl))bis(7-fluoro-4-methoxybenzo[b]thiophene-2-carboxylate)]	–	–
0.196 µM	–	21.4 °C	0.189 µM	9.38 °C	NC(=O)c1ccc2c(c1)nc(-c1c(C(=O)O)sc3cccc(C(F)(F)F)c13)n2CCn1c(-c2c(C(=O)O)sc3cccc(C(F)(F)F)c23)nc2cc(C(N)=O)ccc21 (single isomer, unassigned) [Example 19.1, 3,3′-(Ethane-1,2-diylbis(5-carbamoyl-1H-benzo[d]imidazole-1,2-diyl))bis(4-(trifluoromethyl)benzo[b]thiophene-2-carboxylic acid)]	–	–
3.17 µM	–	–	9.53 µM	–	CCOC(=O)c1sc2c(F)ccc(Cl)c2c1-c1nc2cc(C(N)=O)ccc2n1CCn1c(-c2c(C(=O)OCC)sc3c(F)ccc(Cl)c23)nc2cc(C(N)=O)ccc21 [Example A2, Diethyl 3,3′-(ethane-1,2-diylbis(5-carbamoyl-1H-benzo[d]imidazole-1,2-diyl))bis(4-chloro-7-fluorobenzo[b]thiophene-2-carboxylate)]	–	–
> 40 µM	–	–	> 40 µM	–	CCOC(=O)c1sc2cccc(C#N)c2c1-c1nc2cc(C(N)=O)ccc2n1CCn1c(-c2c(C(=O)OCC)sc3cccc(C#N)c23)nc2cc(C(N)=O)ccc21 [Example 16, Diethyl 3,3′-(ethane-1,2-diylbis(5-carbamoyl-1H-benzo[d]imidazole-1,2-diyl))bis(4-cyanobenzo[b]thiophene-2-carboxylate)]	–	–
0.007 µM	3.41 °C	4.33 °C	0.019 µM	–	CCOC(=O)c1sc2cccc(Cl)c2c1-c1nc2c(OC)c(C(N)=O)ccc2n1CCn1c(-c2c(C(=O)OCC)sc3cccc(Cl)c23)nc2c(OC)c(C(N)=O)ccc21 [Example 21, Diethyl 3,3′-(ethane-1,2-diylbis(5-carbamoyl-4-methoxy-1H-benzo[d]imidazole-1,2-diyl))bis(4-chlorobenzo[b]thiophene-2-carboxylate)]	–	–
0.13 µM	37.7 °C	45.5 °C	0.256 µM	–	COc1c(C(N)=O)ccc2c1nc(-c1c(C(=O)O)sc3cccc(Cl)c13)n2CCn1c(-c2c(C(=O)O)sc3cccc(Cl)c23)nc2c(OC)c(C(N)=O)ccc21 (single isomer, unassigned) [Example 22.1, 3,3′-(Ethane-1,2-diylbis(5-carbamoyl-4-methoxy-1H-benzo[d]imidazole-1,2-diyl))bis(4-chlorobenzo[b]thiophene-2-carboxylic acid)]	–	–
> 40 µM	–	–	3.74 µM	–	CCOC(=O)c1sc2cccc(C(F)(F)F)c2c1-c1nc2cc(C(N)=O)ccc2n1CCn1c(-c2c(C(=O)OCC)sc3cccc(C(F)(F)F)c23)nc2cc(C(N)=O)ccc21 [Example 18, Diethyl 3,3′-(ethane-1,2-diylbis(5-carbamoyl-1H-benzo[d]imidazole-1,2-diyl))bis(4-(trifluoromethyl)benzo[b]thiophene-2-carboxylate)]	–	–
> 40 µM	–	–	> 40 µM	–	CCOC(=O)c1sc2cccc(C)c2c1-c1nc2cc(C(N)=O)ccc2n1CCn1c(-c2c(C(=O)OCC)sc3cccc(C)c23)nc2cc(C(N)=O)ccc21 [Example 14, Diethyl 3,3′-(1,1′-(ethane-1,2-diyl)bis(5-carbamoyl-1H-benzo[d]imidazole-2,1-diyl))bis(4-methylbenzo[b]thiophene-2-carboxylate)]	–	–
> 40 µM	–	–	> 40 µM	–	CCOC(=O)c1sc2cccc(OCC)c2c1-c1nc2cc(C(N)=O)ccc2n1CCn1c(-c2c(C(=O)OCC)sc3cccc(OCC)c23)nc2cc(C(N)=O)ccc21 [Example 23, Diethyl 3,3′-(ethane-1,2-diylbis(5-carbamoyl-1H-benzo[d]imidazole-1,2-diyl))bis(4-ethoxybenzo[b]thiophene-2-carboxylate)]	–	–
> 40 µM	–	–	> 40 µM	–	CCOC(=O)c1sc2ccccc2c1-c1nc2cc(C(N)=O)ccc2n1CCn1c(-c2c(C(=O)OCC)sc3ccccc23)nc2cc(C(N)=O)ccc21 [Example 8, Diethyl 3,3′-(ethane-1,2-diylbis(5-carbamoyl-1H-benzo[d]imidazole-1,2-diyl))bis(benzo[b]thiophene-2-carboxylate)]	–	–
12.7 µM	–	–	19.9 µM	–	CCOC(=O)c1sc2cccc(Br)c2c1-c1nc2cc(C(N)=O)ccc2n1CCn1c(-c2c(C(=O)OCC)sc3cccc(Br)c23)nc2cc(C(N)=O)ccc21 [Example 10, Diethyl 3,3′-(ethane-1,2-diylbis(5-carbamoyl-1H-benzo[d]imidazole-1,2-diyl))bis(4-bromobenzo[b]thiophene-2-carboxylate)]	–	–
0.498 µM	–	–	1.01 µM	35.685 °C	COc1c(C(N)=O)ccc2c1nc(-c1c(C(=O)O)sc3cccc(Cl)c13)n2CCn1c(-c2c(C(=O)O)sc3cccc(Cl)c23)nc2c(OC)c(C(N)=O)ccc21 (single isomer, unassigned) [Example 22.2, 3,3′-(Ethane-1,2-diylbis(5-carbamoyl-4-methoxy-1H-benzo[d]imidazole-1,2-diyl))bis(4-chlorobenzo[b]thiophene-2-carboxylic acid)]	–	45.31 °C

Compound	EC50 (WT human STING isoform)	ΔTm at 100 µM (human STING (WT))	ΔTm at 100 µM (human STING (HAQ) [2])	EC50 [3]	DSF huSTING (WT) ΔTm (human STING (WT))	Kd (human STING (HAQ) [1])	DSF huSTING (HAQ) ΔTm (human STING (HAQ) [2])
CCOc1cccc2sc(C(=O)O)c(-c3nc4cc(C(N)=O)ccc4n3CCn3c(-c4c(C(=O)O)sc5cccc(OCC)c45)nc4cc(C(N)=O)ccc43)c12 [Example 24, 3,3′-(Ethane-1,2-diylbis(5-carbamoyl-1H-benzo[d]imidazole-1,2-diyl))bis(4-ethoxybenzo[b]thiophene-2-carboxylic acid)]	> 40 µM	-0.39 °C	3.15 °C	> 40 µM	–	37 µM	–
NC(=O)c1ccc2c(c1)nc(-c1c(C(=O)O)sc3cccc(Cl)c13)n2CCn1c(-c2c(C(=O)O)sc3cccc(Cl)c23)nc2cc(C(N)=O)ccc21 (single isomer, unassigned) [Example 1.2, 3,3′-(Ethane-1,2-diylbis(5-carbamoyl-1H-benzo[d]imidazole-1,2-diyl))bis(4-chlorobenzo[b]thiophene-2-carboxylic acid)]	6.33 µM	–	–	14.2 µM	−7.14 °C	–	0.13 °C
NC(=O)c1ccc2c(c1)nc(-c1c(C(=O)O)sc3c(F)ccc(Br)c13)n2CCn1c(-c2c(C(=O)O)sc3c(F)ccc(Br)c23)nc2cc(C(N)=O)ccc21 (single isomer, unassigned) [Example 20.2, 3,3′-(Ethane-1,2-diylbis(5-carbamoyl-1H-benzo[d]imidazole-1,2-diyl))bis(4-bromo-7-fluorobenzo[b]thiophene-2-carboxylic acid)]	5.81 µM	–	–	14.7 µM	−4.12 °C	–	0.44 °C
